Inconclusive results and toxic doses are left out.
Test system: L1210 leukemia ip in BDF1 mice, survival T/C
Assay: NCI In Vivo Anticancer Drug Screen. Data for tumor model L1210 Leukemia (intraperitoneal) in B6D2F1 (BDF1) mice
Settings: endpoint: mean survival time, higher = longer survival
Method in brief: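 Survival endpoint. Drug-treated group vs vehicle group, expressed as T divided by C. Tumor passaged by transplantation.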

[1] = dose: 100.0 mg/kg/injection, schedule: Q04DX002 (ip), vehicle: saline with Tween-80
[2] = dose: 200.0 mg/kg/injection, schedule: Q04DX002 (ip), vehicle: saline with Tween-80
[3] = dose: 50.0 mg/kg/injection, schedule: Q04DX002 (ip), vehicle: Klucel (hydroxypropylcellulose) (HPC)
[4] = dose: 100.0 mg/kg/injection, schedule: Q01DX009 (ip), vehicle: Klucel (hydroxypropylcellulose) (HPC)
[5] = dose: 100.0 mg/kg/injection, schedule: Q04DX002 (ip), vehicle: Klucel (hydroxypropylcellulose) (HPC)
[6] = dose: 100.0 mg/kg/injection, schedule: Q04DX003 (ip), vehicle: Klucel (hydroxypropylcellulose) (HPC)
[7] = dose: 200.0 mg/kg/injection, schedule: Q01DX009 (ip), vehicle: Klucel (hydroxypropylcellulose) (HPC)
[8] = dose: 200.0 mg/kg/injection, schedule: Q04DX003 (ip), vehicle: Klucel (hydroxypropylcellulose) (HPC)
[9] = dose: 400.0 mg/kg/injection, schedule: Q04DX003 (ip), vehicle: Klucel (hydroxypropylcellulose) (HPC)

## CC1N=C(c2ccc(NC(=O)c3ccc(C(=O)Nc4ccc(C5=NC(C)C(C)N5)cc4)cc3)cc2)NC1C (stereo not given)
dose: 0.5 mg/kg/injection, schedule: Q01DX015 (ip), vehicle: water
  T/C: 104 % of control
dose: 0.75 mg/kg/injection, schedule: Q01DX001 (ip), vehicle: water
  T/C: 101 % of control
dose: 1.0 mg/kg/injection, schedule: Q01DX015 (ip), vehicle: water
  T/C: 110 % of control
dose: 1.5 mg/kg/injection, schedule: Q01DX001 (ip), vehicle: water
  T/C: 98 % of control
dose: 2.0 mg/kg/injection, schedule: Q01DX001 (ip), vehicle: water
  T/C: 106 % of control
dose: 3.0 mg/kg/injection, schedule: Q01DX001 (ip), vehicle: water
  T/C: 103 % of control
dose: 3.0 mg/kg/injection, schedule: Q01DX015 (ip), vehicle: water
  T/C: 189 % of control
dose: 4.0 mg/kg/injection, schedule: Q01DX015 (ip), vehicle: water
  T/C: 222 % of control

## N/N=C1\CC(=O)NC(=O)N1
dose: 75.0 mg/kg/injection, schedule: Q01DX001 (ip), vehicle: saline
  T/C: 90 % of control
dose: 150.0 mg/kg/injection, schedule: Q01DX001 (ip), vehicle: saline
  T/C: 96 % of control

## Cc1ccc(/C=N/NC(N)=S)nn1
dose: 100.0 mg/kg/injection, schedule: Q04DX002 (ip), vehicle: saline
  T/C: 117 % of control
dose: 200.0 mg/kg/injection, schedule: Q04DX002 (ip), vehicle: saline
  T/C: 98 % of control

## COc1ccccc1CN1CCCOP1(=O)Nc1ccccc1 (stereo not given)
dose: 50.0 mg/kg/injection, schedule: Q01DX001 (ip), vehicle: carboxymethylcellulose (CMC)
  T/C: 91 % of control
dose: 100.0 mg/kg/injection, schedule: Q01DX001 (ip), vehicle: carboxymethylcellulose (CMC)
  T/C: 91 % of control
dose: 200.0 mg/kg/injection, schedule: Q01DX001 (ip), vehicle: carboxymethylcellulose (CMC)
  T/C: 93 % of control
dose: 400.0 mg/kg/injection, schedule: Q01DX001 (ip), vehicle: carboxymethylcellulose (CMC)
  T/C: 93 % of control

## Cc1c(C(=O)O)[nH]c(=O)[nH]c1=O
dose: 100.0 mg/kg/injection, schedule: Q01DX Z (ip), vehicle: methylcellulose (MC)
  T/C: 90 % of control
dose: 200.0 mg/kg/injection, schedule: Q01DX Z (ip), vehicle: methylcellulose (MC)
  T/C: 97 % of control

## Cc1cccc(C(=O)NCC(=O)O)c1
dose: 50.0 mg/kg/injection, schedule: Q01DX009 (ip), vehicle: saline
  T/C: 98 % of control
dose: 100.0 mg/kg/injection, schedule: Q01DX009 (ip), vehicle: saline
  T/C: 94 % of control
[1]
  T/C: 99 % of control
dose: 200.0 mg/kg/injection, schedule: Q01DX009 (ip), vehicle: saline
  T/C: 91 % of control
[2]
  T/C: 96 % of control

## O=C(O)C1C2OC3C(OC(=O)C31)C2Br (stereo not given)
[3]
  T/C: 107 % of control
[4]
  T/C: 89 % of control
[5]
  T/C: 104 % of control
[6]
  T/C: 101 % of control
[7]
  T/C: 91 % of control
dose: 200.0 mg/kg/injection, schedule: Q04DX002 (ip), vehicle: Klucel (hydroxypropylcellulose) (HPC)
  T/C: 100 % of control
[8]
  T/C: 92 % of control
dose: 400.0 mg/kg/injection, schedule: Q01DX009 (ip), vehicle: Klucel (hydroxypropylcellulose) (HPC)
  T/C: 88 % of control
dose: 400.0 mg/kg/injection, schedule: Q04DX002 (ip), vehicle: Klucel (hydroxypropylcellulose) (HPC)
  T/C: 96 % of control
[9]
  T/C: 93 % of control

## Cc1ccc(NC(=O)Nc2ccc(C3=NCCN3)cc2)cc1NC(=O)Nc1ccc(C2=NCCN2)cc1
dose: 2.25 mg/kg/injection, schedule: Q01DX Z (ip), vehicle: water
  T/C: 105 % of control
dose: 4.5 mg/kg/injection, schedule: Q01DX Z (ip), vehicle: water
  T/C: 102 % of control
dose: 9.0 mg/kg/injection, schedule: Q01DX Z (ip), vehicle: water
  T/C: 92 % of control
dose: 18.0 mg/kg/injection, schedule: Q01DX Z (ip), vehicle: water
  T/C: 100 % of control

## CC(C)(C)CC(Cl)Cl
[4]
  T/C: 100 % of control
[6]
  T/C: 96 % of control
[7]
  T/C: 101 % of control
[8]
  T/C: 98 % of control
[9]
  T/C: 94 % of control

## CC(=O)C(CCC#N)(CCC#N)c1ccccc1
[3]
  T/C: 121 % of control
[5]
  T/C: 101 % of control

## CCC1(c2ccccc2)C(=O)N(CCl)C(=O)N(CCl)C1=O
dose: 100.0 mg/kg/injection, schedule: Q01DX009 (ip), vehicle: saline with Tween-80
  T/C: 93 % of control
[1]
  T/C: 103 % of control
dose: 200.0 mg/kg/injection, schedule: Q01DX009 (ip), vehicle: saline with Tween-80
  T/C: 87 % of control
[2]
  T/C: 92 % of control
dose: 400.0 mg/kg/injection, schedule: Q01DX009 (ip), vehicle: saline with Tween-80
  T/C: 90 % of control
dose: 400.0 mg/kg/injection, schedule: Q04DX002 (ip), vehicle: saline with Tween-80
  T/C: 95 % of control

Source: PubChem BioAssay AID248 (DTP/NCI, 2004)
